For orientation: IC50 means the concentration at which inhibition is half-maximal. A low value points to higher potency.

The source of these data is patent US11434246B2, “EP4 antagonists” (Eisai R&D Management Co., Ltd., priority 2015, dated 2022).

The experiment concerns the target EP4 (Homo sapiens, UniProt P35408). Kind of experiment: EP4 Antagonism by CRE-PLAP Reporter Assay (SE302 cells, PGE2-stimulated). Format: cell-based. The arrangement: HEK293 cells express endogenous EP4; endogenous in cells; host or cells: SE302 (HEK293 clone with CRE-PLAP reporter). The note with it: SE302 (HEK293) cells, 3 ng/mL PGE2, overnight; single or multiple assay average values. The text has this:
PGE2 and [^3H]-labelled PGE2 were purchased from Cayman Chemical (Ann Arbor, Mich.) and Perkin Elmer (Waltham, Mass.), respectively. Mouse breast 4T1 cells (CRL-2539) were obtained from American Tissue Culture Collection. SE302 cell line is a clone of the HEK293 cells containing cAMP response element (CRE) promoter that when activated drives secretion of placental-like alkaline phosphatase (PLAP). HEK293 cells express endogenous EP4 and show induction of PLAP in response to PGE2 and EP4 agonists, but not EP1, 2 or 3 agonists (Chen Q, Muramoto K, Masaaki N, Ding Y, Yang H, Mackey M, Li W, Inoue Y, Ackermann K, Shrota H, Matsumoto I, Spyvee M, Schiller S, Sumida T, Gusovsky F, and Lamphier M. A novel antagonist of the prostaglandin E2 EP4 receptor inhibits Th1 differentiation and Th17 expansion and is orally active in arthritis models. British J Pharmacol, 2010, 160: 292-310). BalB/C female mice at 7-8 week age were purchased from Jackson Laboratory (Bar Harbor, Me.). Mice were maintained under specific pathogen-free conditions.
EP4 Antagonism by CRE-PLAP Reporter Assay: SE302 cells were maintained in DMEM/F12 (50:50) (MediaTech) supplemented with 10% FBS (Tissue Culture Biologicals) plus penicillin/streptomycin. When used for assays, cells were plated in a 96-well plate at 2×10^4 cells/100 μL/well in serum-free assay medium (DMEM/F12 supplemented with 0.1% BSA plus penicillin/streptomycin) and incubated for 4-6 h. Cells were then stimulated with 3 ng/mL of PGE2 in the presence or absence of various concentrations of test compound overnight, and PLAP activity was measured by mixing 15 μL of culture supernatants with 75 μL of Lumi-phos (Lumigen, Inc.) and 60 μL of assay buffer containing 8 mmol/L MgSO4 in 0.1 mol/L carbonate-bicarbonate buffer pH11 in a new 96-well black plate and incubated for 2 h at room temperature. The intensity of luminescence, which reflected the PLAP activity in the supernatant, was quantified with an Envision 2101 Multilabel Reader. Values obtained from DMSO treated samples in the presence of PGE2 were defined as 100% of control, whereas values obtained from DMSO treated samples in the absence of PGE2 were defined as 0% of control. % of control for compound treated samples was calculated as follows: (actual reading−0% of control)/(100% of control−0% of control)×100. IC50 value for each individual experiment was calculated using GraphPad Prism 6.02 (Lake Forest, Calif.) with % of control values.
Compounds of the present invention were assayed according to the methods as described above, and IC50 values, which may be single assay values or multiple assay average values, are summarized in Table 1. Compounds marked “ABS” show absolute stereochemistry.
In general terms: A reporter such as luciferase makes a cellular process visible.

Chain of EP4 (P35408 whole entry): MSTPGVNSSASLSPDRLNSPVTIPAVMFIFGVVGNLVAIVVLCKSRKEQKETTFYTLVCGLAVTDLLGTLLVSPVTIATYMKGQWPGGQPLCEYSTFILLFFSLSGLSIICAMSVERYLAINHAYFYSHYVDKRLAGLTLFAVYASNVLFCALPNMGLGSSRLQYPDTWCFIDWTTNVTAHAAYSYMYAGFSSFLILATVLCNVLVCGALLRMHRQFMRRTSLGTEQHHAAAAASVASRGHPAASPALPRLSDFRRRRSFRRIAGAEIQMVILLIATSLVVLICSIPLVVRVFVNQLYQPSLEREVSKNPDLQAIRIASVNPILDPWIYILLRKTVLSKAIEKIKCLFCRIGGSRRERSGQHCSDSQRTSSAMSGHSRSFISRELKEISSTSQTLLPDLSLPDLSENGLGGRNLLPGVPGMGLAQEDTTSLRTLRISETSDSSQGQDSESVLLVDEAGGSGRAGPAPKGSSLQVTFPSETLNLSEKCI

As for `COC(=O)c1ccc([C@H](C)NC(=O)c2c(C(F)(F)F)nn3c2N(Cc2ccc(C(F)(F)F)cc2)CC3)cc1` [Compound 2, Methyl (S)-4-(1-(6-(trifluoromethyl)-1-(4-(trifluoromethyl)benzyl)-2,3-dihydro-1H-imidazo[1,2-b]pyrazole-7-carboxamido)ethyl)benzoate], the IC50 was determined as 3.9 nM.
The result for `C[C@H](NC(=O)c1c(C(F)(F)F)nn2c1N(Cc1ccc(C(F)(F)F)cc1)CC2)c1ccc(C(=O)O)cc1` [Compound 3, (S)-4-(1-(6-(trifluoromethyl)-1-(4-(trifluoromethyl)benzyl)-2,3-dihydro-1H-imidazo[1,2-b]pyrazole-7-carboxamido)ethyl)benzoic acid] reads 3.19 nM; that for `C[C@H](NC(=O)c1c(C(F)(F)F)nn2c1N(Cc1ccccc1C(F)(F)F)CC2)c1ccc(C(=O)O)cc1` [Compound 4, (S)-4-(1-(6-(trifluoromethyl)-1-(2-(trifluoromethyl)benzyl)-2,3-dihydro-1H-imidazo[1,2-b]pyrazole-7-carboxamido)ethyl)benzoic Acid], 22.4 nM; that for `C[C@H](NC(=O)c1c(C(F)(F)F)nn2c1N(Cc1cc(C(F)(F)F)cc(C(F)(F)F)c1)CC2)c1ccc(C(=O)O)cc1` [Compound 5, (S)-4-(1-(1-(3,5-bis(trifluoromethyl)benzyl)-6-(trifluoromethyl)-2,3-dihydro-1H-imidazo[1,2-b]pyrazole-7-carboxamido)ethyl)benzoic Acid], 45.9 nM.
The figure for `C[C@H](NC(=O)c1c(C(F)(F)F)nn2c1N(Cc1cc(Cl)cc(C(F)(F)F)c1)CC2)c1ccc(C(=O)O)cc1` [Compound 6, (S)-4-(1-(1-(3-chloro-5-(trifluoromethyl)benzyl)-6-(trifluoromethyl)-2,3-dihydro-1H-imidazo[1,2-b]pyrazole-7-carboxamido)ethyl)benzoic Acid] is 0.14 nM.
The result for `C[C@H](NC(=O)c1c(C(F)(F)F)nn2c1N(Cc1cc(Cl)cc(Cl)c1)CC2)c1ccc(C(=O)O)cc1` [Compound 7, (S)-4-(1-(1-(3,5-dichlorobenzyl)-6-(trifluoromethyl)-2,3-dihydro-1H-imidazo[1,2-b]pyrazole-7-carboxamido)ethyl)benzoic Acid] reads 0.32 nM; that for `COc1ccc(CN2CCn3nc(C(F)(F)F)c(C(=O)N[C@@H](C)c4ccc(C(=O)O)cc4)c32)cc1` [Compound 8, (S)-4-(1-(1-(4-methoxybenzyl)-6-(trifluoromethyl)-2,3-dihydro-1H-imidazo[1,2-b]pyrazole-7-carboxamido)ethyl)benzoic Acid], 8.03 nM; that for `COc1cccc(CN2CCn3nc(C(F)(F)F)c(C(=O)N[C@@H](C)c4ccc(C(=O)O)cc4)c32)c1` [Compound 9, (S)-4-(1-(1-(3-methoxybenzyl)-6-(trifluoromethyl)-2,3-dihydro-1H-imidazo[1,2-b]pyrazole-7-carboxamido)ethyl)benzoic Acid], 1.41 nM.
With `C[C@H](NC(=O)c1c(C(F)(F)F)nn2c1N(Cc1ccc(OC(F)(F)F)cc1)CC2)c1ccc(C(=O)O)cc1` [Compound 10, (S)-4-(1-(1-(4-(trifluoromethoxy)benzyl)-6-(trifluoromethyl)-2,3-dihydro-1H-imidazo[1,2-b]pyrazole-7-carboxamido)ethyl)benzoic Acid], half-maximal inhibition (IC50) was put at 12.5 nM.
Regarding `C[C@H](NC(=O)c1c(C(F)(F)F)nn2c1N(Cc1cccc(OC(F)(F)F)c1)CC2)c1ccc(C(=O)O)cc1` [Compound 11, (S)-4-(1-(1-(3-(trifluoromethoxy)benzyl)-6-(trifluoromethyl)-2,3-dihydro-1H-imidazo[1,2-b]pyrazole-7-carboxamido)ethyl)benzoic Acid], the IC50 stood at 0.41 nM.
The figure for `C[C@H](NC(=O)c1c(C(F)(F)F)nn2c1N(Cc1cccc(Cl)c1)CC2)c1ccc(C(=O)O)cc1` [Compound 12, (S)-4-(1-(1-(3-chlorobenzyl)-6-(trifluoromethyl)-2,3-dihydro-1H-imidazo[1,2-b]pyrazole-7-carboxamido)ethyl)benzoic Acid] is 2.23 nM; for `C[C@H](NC(=O)c1c(C(F)(F)F)nn2c1N(Cc1ccc(Cl)c(Cl)c1)CC2)c1ccc(C(=O)O)cc1` [Compound 13, (S)-4-(1-(1-(3,4-dichlorobenzyl)-6-(trifluoromethyl)-2,3-dihydro-1H-imidazo[1,2-b]pyrazole-7-carboxamido)ethyl)benzoic Acid] it is 0.44 nM.
The figure for `C[C@H](NC(=O)c1c(C(F)(F)F)nn2c1N(Cc1ccc(F)cc1)CC2)c1ccc(C(=O)O)cc1` [Compound 14, (S)-4-(1-(1-(4-fluorobenzyl)-6-(trifluoromethyl)-2,3-dihydro-1H-imidazo[1,2-b]pyrazole-7-carboxamido)ethyl)benzoic Acid] is 0.58 nM.
The figure for `C[C@H](NC(=O)c1c(C(F)(F)F)nn2c1N(Cc1cccc(F)c1)CC2)c1ccc(C(=O)O)cc1` [Compound 15, (S)-4-(1-(1-(3-fluorobenzyl)-6-(trifluoromethyl)-2,3-dihydro-1H-imidazo[1,2-b]pyrazole-7-carboxamido)ethyl)benzoic Acid] is 1.65 nM.
Turning to `C[C@H](NC(=O)c1c(C(F)(F)F)nn2c1N(Cc1ccccc1F)CC2)c1ccc(C(=O)O)cc1` [Compound 16, (S)-4-(1-(1-(2-fluorobenzyl)-6-(trifluoromethyl)-2,3-dihydro-1H-imidazo[1,2-b]pyrazole-7-carboxamido)ethyl)benzoic Acid], the 50% inhibitory concentration (IC50) is 1.4 nM.
As for `Cc1ccc(CN2CCn3nc(C(F)(F)F)c(C(=O)N[C@@H](C)c4ccc(C(=O)O)cc4)c32)cc1` [Compound 17, (S)-4-(1-(1-(4-methylbenzyl)-6-(trifluoromethyl)-2,3-dihydro-1H-imidazo[1,2-b]pyrazole-7-carboxamido)ethyl)benzoic Acid], half-maximal inhibition (IC50) required 1.65 nM.
For `Cc1cccc(CN2CCn3nc(C(F)(F)F)c(C(=O)N[C@@H](C)c4ccc(C(=O)O)cc4)c32)c1` [Compound 18, (S)-4-(1-(1-(3-methylbenzyl)-6-(trifluoromethyl)-2,3-dihydro-1H-imidazo[1,2-b]pyrazole-7-carboxamido)ethyl)benzoic Acid], it took 0.64 nM to reach half-maximal inhibition (IC50).
The result for `Cc1ccccc1CN1CCn2nc(C(F)(F)F)c(C(=O)N[C@@H](C)c3ccc(C(=O)O)cc3)c21` [Compound 19, (S)-4-(1-(1-(2-methylbenzyl)-6-(trifluoromethyl)-2,3-dihydro-1H-imidazo[1,2-b]pyrazole-7-carboxamido)ethyl)benzoic Acid] reads 3.6 nM.
The result for `CCc1ccc(CN2CCn3nc(C(F)(F)F)c(C(=O)N[C@@H](C)c4ccc(C(=O)O)cc4)c32)cc1` [Compound 20, (S)-4-(1-(1-(4-ethylbenzyl)-6-(trifluoromethyl)-2,3-dihydro-1H-imidazo[1,2-b]pyrazole-7-carboxamido)ethyl)benzoic Acid] reads 2.23 nM; that for `C[C@H](NC(=O)c1c(C(F)(F)F)nn2c1N(Cc1ccc(C(F)(F)F)cc1)CC2)c1ccc(C(=O)O)c(F)c1` [Compound 21, (S)-2-fluoro-4-(1-(6-(trifluoromethyl)-1-(4-(trifluoromethyl)benzyl)-2,3-dihydro-1H-imidazo[1,2-b]pyrazole-7-carboxamido)ethyl)benzoic Acid], 2.85 nM.
The figure for `C[C@H](NC(=O)c1c(C(F)(F)F)nn2c1N(Cc1ccc(C(F)(F)F)cc1)CC2)c1ccc(C(=O)O)cc1F` [Compound 22, (S)-3-fluoro-4-(1-(6-(trifluoromethyl)-1-(4-(trifluoromethyl)benzyl)-2,3-dihydro-1H-imidazo[1,2-b]pyrazole-7-carboxamido)ethyl)benzoic Acid] is 1.91 nM; for `C[C@H](NC(=O)c1c(C(F)(F)F)nn2c1N(Cc1cccc(C(F)(F)F)c1)CC2)c1ccc(C(=O)O)cc1F` [Compound 23, (S)-3-fluoro-4-(1-(6-(trifluoromethyl)-1-(3-(trifluoromethyl)benzyl)-2,3-dihydro-1H-imidazo[1,2-b]pyrazole-7-carboxamido)ethyl)benzoic Acid] it is 0.41 nM.
